In patent publication EP4541351A1, “COMPOUNDS AND COMBINATION AS STIMULATORS OF COLLAGEN SYNTHESIS” (Center for Intelligent Research in Crystal Engineering, S.L., priority 2023, dated 2025):

Assays:
[1] = test system: Immortalized Human Gingival Fibroblasts-hTERT (iHGF); experiment: Total collagen deposition (Sirius red staining) after UVA irradiation; format: cell-based; conditions: 7 days after irradiation and treatment
Experimental: Collagen deposition was determined according to Walsh et al 1992. […] Collagen was stained with Sirius red F3BA 0.1% in saturated picric acid for 1 hour. Unbound dye was removed by washing with 10 mM HCl, and dye was solubilized with 100 mM NaOH. Absorbance was measured with a microplate reader at 540 nm. Non-treated cells were set as 100%.

[2] = test system: Immortalized Human Gingival Fibroblasts-hTERT (iHGF); experiment: Metabolic activity (PrestoBlue cell viability) after UVA irradiation; conditions: 24 h after irradiation and after 7 days of culture and treatment
Experimental: Immortalized Human Gingival Fibroblasts-hTERT (iHGF) (Applied Biological Materials Inc) were used for the experiments. Cells were grown at 37 °C in an atmosphere of 5% CO2 using complete fibroblast cell culture medium that consists in Dulbecco's modified Eagle's medium (DMEM) low glucose (Biowest)/Ham's F12 (3/1) (Biowest), supplemented with 10% (v/v) fetal bovine serum embryonic stem cells tested (FBS) (Biowest), 100 g/mL penicillin and 100 g/mL streptomycin (Biowest).
iHGF were seeded (7 000 cells/well) in 96-well plates (white and transparent tissue culture test-plates) and at confluence, cells were treated with different concentrations (0.1; 1; 10; 50; 75 and 100 µM) of Pteroyouth®, pterostilbene or silybin in complete fibroblast cell culture medium as described above. […] To measure cell viability, cell culture media and treatments were added again to the cells and metabolic activity was measured 24 h after irradiation. […] Cell viability was determined again at day 7, and cell monolayer was used to quantify collagen deposition. […]
Total metabolic activity was evaluated using the PrestoBlue™ Cell Viability Reagent (Invitrogen, Catalog Number A13261; Life Technologies, Carlsbad, CA, USA), which is used to measure the metabolic activity of cells, being an indicator of their overall health and functionality. […]

SMILES | total collagen deposition compared to both C and CuVA ([1]; 1 µM) | metabolic activity (cell viability) ([2]; 0.1 µM) | metabolic activity (cell viability) ([2]; 1 µM) | total collagen deposition compared to both C and CuVA ([1]; 0.1 µM) | total collagen deposition compared to both C and CuVA ([1]; 10 µM)
COc1cc(/C=C/c2ccc(O)cc2)cc(OC)c1 [pterostilbene, trans-3,5-dimethoxy-4-hydroxystilbene] | higher collagen deposition | maintain cell viability | maintain cell viability | – | –
COc1cc(C2Oc3cc([C@H]4Oc5cc(O)cc(O)c5C(=O)[C@@H]4O)ccc3OC2CO)ccc1O (stereo partly drawn) [silybin] | higher collagen deposition | – | – | higher collagen deposition | higher collagen deposition
